Key:
[1] = test system: RNA editing in APOBEC3D (Sites 1 & 2); test: Direct sequencing of CSC-specific RNA editing biomarkers in APOBEC3D after 8-azaadenosine treatment; format: cell-based, human
Description: As proof-of-concept that small molecule inhibitors could block RNA editing activity, CD34^+ cells from a CML blast crisis patient were treated with vehicle or 1 μM 8-azaadenosine (Veliz et al., JACS 2003) for 24 hours and co-cultured on humanized bone marrow stromal cells (SL/M2) for 5 days. […] Thus, RESSq-PCR and RNA editing inhibitors is an allele-specific diagnostic assay that can be used for detection of primate-specific RNA editing events in cancer stem cells.
For PCR and targeted Sanger sequencing analysis, 1-2 μL of first-strand cDNA templates were prepared for PCR in 25-50 μL reaction volumes using the high-fidelity KOD Hot Start DNA Polymerase kit according to the manufacturer's instructions (EMD Millipore, Temecula, Calif.). “Outer” primers (Additional file 2: Table S2) used for sequencing produce predicted amplicons of approximately 150-250 nucleotides in length, and flank each editing site with approximately 50-100 bp on either side of the editing site to facilitate successful sequencing analysis. […] Sequence chromatograms were analyzed using 4Peaks (by A. Griekspoor and Tom Groothuis) and peak heights calculated using ImageJ (NIH). For RNA editing analysis of sequencing chromatograms, ratios of edited/WT peaks were calculated using the raw peak amplitude of each sequence trace.

ADAR1 = test: qRT-PCR of total ADAR1 levels after 8-azaadenosine treatment; format: cell-based, human; details: cord blood, ABM, and blast crisis cells; FIG. 21A
Description: (A) 8-azaadenosine treatment results in reduced total ADAR1 levels by qRT-PCR, and (B) decreased RNA editing in APOBEC3D (Sites 1 & 2) by direct sequencing.
Cell lines, lentivirus-transduced primary hematopoietic cells, or FACS-purified primary cells were harvested in lysis buffer (Qiagen). RNA was purified using RNeasy extraction kits with a DNase (Qiagen) incubation step to digest any trace genomic DNA present. For RNA extraction from cell line lysates, 1-2×10^6 cells were extracted using RNeasy mini columns, and for primary cells, 5-10×10^4 cells were lysed and extracted using RNeasy micro columns. Genomic DNA was purified from equal numbers of cells lysed separately using the QIAamp DNA Blood Mini Kit (Qiagen) including an RNase A incubation step to digest any RNA present (Qiagen). RNA was stored at −80° C. and gDNA stored at −20° C. Immediately prior to reverse transcription of RNA samples, nucleic acid concentrations were quantified on a NanoDrop 2000 spectrophotometer (Thermo Scientific), and purity was considered acceptable if A260/A280 values were >1.8. […]

## Nc1ncnc2c1nnn2[C@@H]1O[C@H](CO)[C@@H](O)[C@H]1O [8-azaadenosine]
[1]; CD34+ cells from a CML blast crisis patient, 1 μM for 24 hours vs vehicle, co-cultured on SL/M2 stromal cells for 5 days
  edit/wild-type sequence ratios of two CSC-specific RNA editing biomarkers in APOBEC3D: reduction
[1]; cord blood, ABM, and blast crisis cells, FIG. 21B
  RNA editing in APOBEC3D (Sites 1 & 2) by direct sequencing: decreased
ADAR1
  total ADAR1 levels by qRT-PCR: reduced
